According to patent publication EP1066315B1 (University of Dundee, priority 1998, dated 2008):
Entries after “also recorded” stand apart in the source; their conditions may differ. Non-standard residues stand in square brackets, D forms with d. Residues, ends and D or L forms follow the SMILES beside them. *: point of attachment. Sta = CC(C)C[C@H](N)[C@@H](O)CC(=O)O; Fmoc = O=C(OCC1c2ccccc2-c2ccccc21)*; Isovaleryl = CC(C)CC(=O)*

Columns and labels:
[1] = tested on: purified AEP (legumain from pig kidney); test: Digestion of TTCF with purified AEP in the presence of tetrapeptides; format: biochemical; conditions: 0.2 mg/ml peptide; Fig 3a
Description: The invention will now be described by reference to the following Examples and Figures wherein • Figure 1: Processing of TTCF by a leupeptin-insensitive cysteine endopeptidase activity. (a) TTCF was digested in vitro in the presence of disrupted lysosomes (1-2 µg) in the presence or absence of iodoacetamide (1 mM), leupeptin, E64 or pepstatin (each at 0.1 mg/ml). Digestions were in 0.1 M NH4 acetate at pH 4.5 or Na2HPO4, pH 6.0 or 7.0. After 4 hours at 37°C, the reactions were separated by Tris-tricine SDS-PAGE and stained with Coomassie Blue. (b) Cleavage sites: TTCF digestion products were separated by SDS PAGE and electrophoretically transferred to nitrocellulose membrane. Individual fragments numbered 1-6 were subjected to 5 cycles of Edman degradation. N-terminal sequence obtained is shown in bold following upstream residues from TTCF (tetanus toxin numbering). The N-terminal sequence of His-tagged TTCF was obtained for fragments 1 and 3. (c) Residues Asn 1184 and Glu 1184 in TTCF were mutated to alanine (see Methods) and digestions performed as before. The mutation abolishes cleavage at the mutated site but not at the first site (doublet at 47 kD). In this experiment cleavage of the third site was minimal. • Figure 2: TTCF is processed by an asparaginyl endopeptidase. (a) Chromatography of the TTCF processing activity on Mono-S resin. Fractions eluted by NaCl gradient were incubated with the substrates Z-Ala-Ala-Asn-NHMec or Z-Phe-Arg-NHMec in the presence or absence of E64 (trans-epoxysuccinyl-L-leucylamido-(4-guanidino)butane). […] (b) Fractions as above were incubated with 10 µg TTCF in the presence or absence of E64 for 4 hours at 37°C prior to SDS-PAGE analysis. (c) Each fraction was analysed by SDS-PAGE and Western blotting. Electrophoretically transferred material was probed with an affinity purified antiserum raised against the peptide KGIGSGKVLKSGPQC from human legumain^1. • Figure 3: Peptide inhibitors of AEP block asparaginyl endopeptidase activity and TTCF processing in vitro and in vivo. […] Release of 7-amino-4-methyl coumarin was measured after 10, 20 or 30 minutes. […] At different times the cells were washed, fixed in 0.05 % glutaraldehyde and antigen presentation measured using proliferation of different autologous TTCF-specific T cell clones. c, AEP pre-processing of TTCF speeds antigen presentation. […] Presentation was measured after 60 minutes of antigen pulsing using EBV B cells.
We decided to test the possibility that high concentrations of asparagine containing peptides might act as competitive inhibitors. […] To establish that inhibition of AEP was specific, we measured the hydrolysis of different synthetic peptide substrates in the presence and absence of these tetrapeptides.

[2] = target: T1, disrupted lysosomes isolated from the human B cell line EDR (TTCF processing activity) (Homo sapiens, UniProt Q99538); test: Digestion of TTCF by disrupted B cell lysosomes, SDS-PAGE readout; format: biochemical; conditions: for inhibition of lysosomal digestion of TTCF: inhibitor at 0.1 mg/ml, pH 4.5, 4 hours at 37°C, Fig 1a
T1 construct: disrupted lysosomes isolated from the human B cell line EDR; endogenous in cells; host or cells: human B cell line EDR, Percoll-gradient lysosomal fraction, disrupted
T1 sequence (Q99538 26-323 limits assumed): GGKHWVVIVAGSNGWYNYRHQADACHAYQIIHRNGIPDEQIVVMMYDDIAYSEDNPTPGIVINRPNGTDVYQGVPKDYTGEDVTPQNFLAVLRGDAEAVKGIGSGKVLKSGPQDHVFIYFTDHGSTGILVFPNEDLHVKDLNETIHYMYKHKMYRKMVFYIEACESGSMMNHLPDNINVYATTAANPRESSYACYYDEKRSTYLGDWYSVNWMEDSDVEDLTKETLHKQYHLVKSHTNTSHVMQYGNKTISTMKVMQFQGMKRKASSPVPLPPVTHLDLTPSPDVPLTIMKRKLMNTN
Description: The invention will now be described by reference to the following Examples and Figures wherein • Figure 1: Processing of TTCF by a leupeptin-insensitive cysteine endopeptidase activity. (a) TTCF was digested in vitro in the presence of disrupted lysosomes (1-2 µg) in the presence or absence of iodoacetamide (1 mM), leupeptin, E64 or pepstatin (each at 0.1 mg/ml). Digestions were in 0.1 M NH4 acetate at pH 4.5 or Na2HPO4, pH 6.0 or 7.0. After 4 hours at 37°C, the reactions were separated by Tris-tricine SDS-PAGE and stained with Coomassie Blue. (b) Cleavage sites: TTCF digestion products were separated by SDS PAGE and electrophoretically transferred to nitrocellulose membrane. Individual fragments numbered 1-6 were subjected to 5 cycles of Edman degradation. N-terminal sequence obtained is shown in bold following upstream residues from TTCF (tetanus toxin numbering). The N-terminal sequence of His-tagged TTCF was obtained for fragments 1 and 3. (c) Residues Asn 1184 and Glu 1184 in TTCF were mutated to alanine (see Methods) and digestions performed as before. The mutation abolishes cleavage at the mutated site but not at the first site (doublet at 47 kD). In this experiment cleavage of the third site was minimal. • Figure 2: TTCF is processed by an asparaginyl endopeptidase. (a) Chromatography of the TTCF processing activity on Mono-S resin. Fractions eluted by NaCl gradient were incubated with the substrates Z-Ala-Ala-Asn-NHMec or Z-Phe-Arg-NHMec in the presence or absence of E64 (trans-epoxysuccinyl-L-leucylamido-(4-guanidino)butane). […] (b) Fractions as above were incubated with 10 µg TTCF in the presence or absence of E64 for 4 hours at 37°C prior to SDS-PAGE analysis. (c) Each fraction was analysed by SDS-PAGE and Western blotting. Electrophoretically transferred material was probed with an affinity purified antiserum raised against the peptide KGIGSGKVLKSGPQC from human legumain^1. • Figure 3: Peptide inhibitors of AEP block asparaginyl endopeptidase activity and TTCF processing in vitro and in vivo. (a) TTCF was digested with purified AEP (legumain from pig kidney) in the presence or absence of 0.2 mg/ml of the peptides indicated. […] (b) Purified AEP or a crude lysosomal protease mixture were incubated with Z-Ala-Ala-Asn-NHMec, Z-Phe-Arg-NHMec (cathepsins L&B) or Z-Val-Val-Ala NHMec (cathepsin S) in the presence of increasing concentrations of AENK or AEQK. Release of 7-amino-4-methyl coumarin was measured after 10, 20 or 30 minutes. […] At different times the cells were washed, fixed in 0.05 % glutaraldehyde and co-cultured with autologous TTCF specific T cell clones. […] Proteins obtained from commercial sources, as described in the literature or custom peptides were digested with purified pig kidney legumain at pH 5.5 in the presence of 1 mM DTT. […] When present peptide was maintained during antigen pulsing at 1 mg/ml (a) or 2 mg/ml (b). At different times the cells were washed, fixed in 0.05 % glutaraldehyde and antigen presentation measured using proliferation of different autologous TTCF-specific T cell clones. c, AEP pre-processing of TTCF speeds antigen presentation. […] Presentation was measured after 60 minutes of antigen pulsing using EBV B cells.
[…]. […] Nor could we reproduce the lysosomal TTCF digestion pattern or indeed generate any of these fragments using purified cathepsins L, S, B, D or E , all of which have been implicated in the class II MHC antigen processing pathway (reviewed in refs 5 & 6).
TTCF processing activity. Lysosomal fractions from the human B cell line EDR were prepared on 27 % Percoll density gradients as previously described^8 using ^125I-labelled transferrin (internalised for 30 minutes at 37°C) and β-hexosaminidase to identify endosomal/plasma membrane and lysosomal fractions respectively. The peak of lysosomes was collected by centrifugation at 40,000 g for 1 hour, removed from the underlying Percoll pellet, collected again at 50,000 g for 1 hour and stored frozen. […]

[3] = target: T2, asparaginyl endopeptidase activity (Homo sapiens, UniProt Q99538); test: Cleavage of Z-Ala-Ala-Asn-NHMec by Mono-S fractions of B cell lysosome extract; format: biochemical; conditions: presence or absence of E64
T2 construct: We next partially purified the TTCF processing activity from a crude B cell lysosome fraction; endogenous in cells; host or cells: human B cell line EDR; membrane pellet solubilised in citrate/CHAPS, Mono-S cation-exchange fractions
T2 sequence (Q99538 26-323 limits assumed): T1 sequence (Q99538 26-323 limits assumed)
Description: (§1) The invention will now be described by reference to the following Examples and Figures wherein • Figure 1: Processing of TTCF by a leupeptin-insensitive cysteine endopeptidase activity. (a) TTCF was digested in vitro in the presence of disrupted lysosomes (1-2 µg) in the presence or absence of iodoacetamide (1 mM), leupeptin, E64 or pepstatin (each at 0.1 mg/ml). Digestions were in 0.1 M NH4 acetate at pH 4.5 or Na2HPO4, pH 6.0 or 7.0. After 4 hours at 37°C, the reactions were separated by Tris-tricine SDS-PAGE and stained with Coomassie Blue. (b) Cleavage sites: TTCF digestion products were separated by SDS PAGE and electrophoretically transferred to nitrocellulose membrane. Individual fragments numbered 1-6 were subjected to 5 cycles of Edman degradation. N-terminal sequence obtained is shown in bold following upstream residues from TTCF (tetanus toxin numbering). […] (c) Each fraction was analysed by SDS-PAGE and Western blotting. […] Release of 7-amino-4-methyl coumarin was measured after 10, 20 or 30 minutes. […] At different times the cells were washed, fixed in 0.05 % glutaraldehyde and antigen presentation measured using proliferation of different autologous TTCF-specific T cell clones. c, AEP pre-processing of TTCF speeds antigen presentation. […] Presentation was measured after 60 minutes of antigen pulsing using EBV B cells. […]

[4] = tested on: cathepsin L and/or B; test: Cleavage of Z-Phe-Arg-NHMec by Mono-S fractions of B cell lysosome extract; format: biochemical, human; conditions: presence or absence of E64, Fig 2a
Description: as §1

[5] = target: T3, TTCF processing activity (Homo sapiens, UniProt Q99538); test: TTCF processing by Mono-S fractions of B cell lysosome extract; format: biochemical; conditions: 10 µg TTCF, 4 hours at 37°C, Fig 2b
T3 construct: We next partially purified the TTCF processing activity from a crude B cell lysosome fraction; endogenous in cells; host or cells: human B cell line EDR; membrane pellet solubilised in citrate/CHAPS, Mono-S cation-exchange fractions
T3 sequence (Q99538 26-323 limits assumed): T1 sequence (Q99538 26-323 limits assumed)
Description: as §1

[6] = tested on: Asparagine endopeptidase (AEP); test: AEP
[7] = B cell lysosomal fractions (crude lysosomal protease mixture); conditions: human, up to 30 minutes

Compound: NCCCC[C@H](NC(=O)OCC1c2ccccc2-c2ccccc21)C(=O)N[C@@H](CC(N)=O)C(=O)N[C@@H](CC(N)=O)C(=O)N[C@@H](CCC(=O)O)C(N)=O [KNNE, Lys-Asn-Asn-Glu-NH] (Fmoc-KNNE-NH2)
- inhibition of processing of TTCF by AEP [1]: also inhibited but was less effective

Compound: NCCCC[C@H](NC(=O)OCC1c2ccccc2-c2ccccc21)C(=O)N[C@@H](CCC(N)=O)C(=O)N[C@@H](CCC(N)=O)C(=O)N[C@@H](CCC(=O)O)C(N)=O [KQQE] (Fmoc-KQQE-NH2)
- inhibition of processing of TTCF by AEP [1]: did not inhibit

Compound: CC(C)C[C@H](NC(=O)[C@H]1O[C@@H]1C(=O)O)C(=O)NCCCCNC(=N)N [E64, trans-epoxysuccinyl-L-leucylamido-(4-guanidino)butane]
- inhibition of lysosomal digestion of TTCF [2]: could not inhibit
- effect on cleavage of Z-Ala-Ala-Asn-NHMec [3]: no inhibitory effect; also recorded: unaffected
- inhibition of activity cleaving Z-Phe-Arg-NHMec [4]: completely inhibited
- effect on TTCF processing activity [5]: unaffected

Compound: QQQHLFGSN(CHO)VTDCSGNFCLFR
- cleaved bond [6]: N637-F638
- not cleaved [6]: fragments VTDCSGNFCLFR and QQQHLFGSN(CHO) not observed

Compound: CC(C)C[C@H](NC(=O)N1CCOCC1)C(=O)N[C@H](/C=C/S(=O)(=O)c1ccccc1)CCc1ccccc1 [LHVS]
- effect on lysosomal TTCF digestion activity ([2]; concentration not given, data not shown): without effect

Compound: Z-Val-Ala-Asn-NHMec
- cleaved bond [7]: Asn-NHMec

Compound: QQQHLFGSNVTDCSGNFCLFRKKK
- cleaved bond [6]: N630-V631; also recorded: N637-F638

Compound: CC(C)CC(=O)N[C@H](C(=O)N[C@H](C(=O)N[C@@H](CC(C)C)[C@@H](O)CC(=O)N[C@@H](C)C(=O)N[C@@H](CC(C)C)[C@@H](O)CC(=O)O)C(C)C)C(C)C [pepstatin] (Isovaleryl-VV[Sta]A[Sta]-OH)
- inhibition of lysosomal digestion of TTCF [2]: could not inhibit
